Measurements from patent US9120779B2, “Inhibitors of HCV NS5A” (PRESIDIO PHARMACEUTICALS, INC., priority 2008, dated 2015).
Like-named read-outs stand apart in the source and are kept apart here.

Tested on: HCV genotype 1b replicon in Huh 7 cells
Assay: HCV replicon assay (luciferase readout, 1b_Huh-Luc/Neo-ET cell line)
Format: cell-based
Procedure, shortened: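 Inhibition expressed as percent of untreated control luciferase signal and fitted to a Hill-slope equation for EC50, with repeat determinations. Compounds were added in triplicate to Huh 7 cells stably expressing the genotype 1b luciferase replicon, with 72 h exposure.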

[1] = Hepatitis C virus, Huh-7, 72 h, read-out: Inhibition of HCV genotype 1b, Table 5, 72 h incubation
[2] = Hepatitis C virus, Huh-7, 72 h, read-out: Inhibition of HCV genotype 1b, Table 3, 72 h incubation
[3] = Hepatitis C virus, Huh-7, 72 h, read-out: Inhibition of HCV genotype 1b, Table 4, 72 h incubation
[4] = Hepatitis C virus, Huh-7, 72 h, read-out: Inhibition of HCV genotype 1b, Table 1, 72 h incubation

COC(=O)N[C@H](C(=O)N1CCC[C@H]1c1ncc(-c2ccc(C34CCC(c5cnc([C@@H]6CCCN6C(=O)[C@H](NC(=O)OC(C)(C)C)c6ccccc6)[nH]5)(CC3)CC4)cc2)[nH]1)C(C)C [compound 626]
EC50 [1]: < 1 nM

COC(=O)N[C@@H](C(=O)N[C@@H](C)c1ncc(-c2cc(F)c(N3CCC(c4cnc([C@@H]5CCCN5C(=O)[C@H](NC(=O)OC)c5ccccc5)[nH]4)CC3)c(F)c2)[nH]1)c1ccccc1 [compound 518]
EC50 [2]: < 1 nM

COC(=O)N[C@H](C(=O)N1CCC[C@H]1c1nc2ccc(-c3cnc(-c4ccc5nc([C@@H]6CCCN6C(=O)[C@@H](NC(=O)OC)C(C)C)[nH]c5c4)cn3)cc2[nH]1)C(C)C [compound 2036]
EC50 [3]: < 1 nM

COC(=O)N[C@@H](C(=O)N1CCC[C@H]1c1ncc(-c2ccc(C3CCC(c4cnc([C@@H]5CCCN5C(=O)[C@H](NC(=O)OC)c5ccccc5)[nH]4)CC3)cc2)[nH]1)c1ccccc1 (stereo partly drawn) [compound 373]
EC50 [4]: < 1 nM

COC(=O)N[C@@H](C(=O)N1CCC[C@H]1c1ncc(-c2cc(F)c(N3CCC(c4cnc([C@@H]5CCCN5C(=O)[C@@H](c5ccccc5)N5CCCCC5)[nH]4)CC3)c(F)c2)[nH]1)c1ccccc1 [compound 469]
EC50 [2]: < 1 nM

CN1CCN(C(=O)N[C@@H](C(=O)N2CCC[C@H]2c2ncc(-c3ccc(C4CCC(c5cnc([C@@H]6CCCN6C(=O)[C@H](NC(=O)N6CCN(C)CC6)c6ccccc6)o5)CC4)cc3)[nH]2)c2ccccc2)CC1 (stereo partly drawn) [compound 359]
EC50 [4]: 1 to 9.9 nM

COC(=O)N[C@H](C(=O)N1CCC[C@H]1c1ncc(-c2ccc([C@H]3CC[C@H](c4cnc([C@@H]5CCCN5C(=O)[C@@H](NC(=O)OC)[C@@H](C)OC)[nH]4)CC3)cc2)[nH]1)[C@@H](C)OC [compound 388]
EC50 [4]: < 1 nM

C[C@H](NC(=O)[C@H](NC(=O)OC(C)(C)C)c1ccccc1)c1ncc(C2CCN(c3c(F)cc(-c4cnc([C@@H]5CCCN5C(=O)[C@H](NC(=O)OC(C)(C)C)c5ccccc5)[nH]4)cc3F)CC2)[nH]1 [compound 513]
EC50 [2]: < 1 nM

COC(=O)N[C@@H](C(=O)N1CCC[C@H]1c1ncc(C23CCC(c4ccc(-c5cnc([C@@H]6CCCN6C(=O)[C@H](NC(=O)C6CC6)c6ccccc6)[nH]5)cc4)(CC2)CC3)[nH]1)c1ccccc1 [compound 625]
EC50 [1]: < 1 nM

CCNC(=O)N[C@H](C(=O)N1CCC[C@H]1c1ncc(-c2ccc(C34CCC(c5cnc([C@@H]6CCCN6C(=O)[C@@H](NC(=O)OC)C(C)C)[nH]5)(CC3)CC4)cc2)[nH]1)C(C)C [compound 2096]
EC50 [1]: < 1 nM

COC(=O)N[C@H](C(=O)N1CCC[C@H]1c1nc2ccc(-c3ccc(-c4ccc5nc([C@H](C)NC(=O)[C@@H](C(C)C)N(C)C)[nH]c5c4)cc3)cc2[nH]1)C(C)C [compound 936]
EC50 [3]: < 1 nM

COC(=O)N[C@@H](C(=O)N1CCC[C@H]1c1ncc(-c2cc(F)c(N3CCC(c4cnc([C@@H]5CCCCN5C(=O)[C@H](NC(=O)OC)C(C)C)[nH]4)CC3)c(F)c2)[nH]1)c1ccccc1 [compound 501]
EC50 [2]: < 1 nM

CC(C)[C@H](NC(=O)N1CC[C@@H](O)C1)C(=O)N1CCC[C@H]1c1ncc(-c2ccc(C34CCC(c5cnc([C@@H]6CCCN6C(=O)[C@@H](NC(=O)N6CC[C@@H](O)C6)C(C)C)[nH]5)(CC3)CC4)cc2)[nH]1 [compound 629]
EC50 [1]: > 1000 nM

C[C@H](NC(=O)[C@H](NC(=O)OC(C)(C)C)c1ccccc1)c1ncc(-c2cc(F)c(N3CCC(c4cnc([C@@H]5CCCN5C(=O)[C@H](NC(=O)OC(C)(C)C)c5ccccc5)[nH]4)CC3)c(F)c2)[nH]1 [compound 520]
EC50 [2]: < 1 nM

COC(=O)N[C@H](C(=O)N1CCC[C@H]1c1ncc(-c2ccc([C@H]3CC[C@H](c4cnc([C@@H]5CCCN5C(=O)[C@H](NC(=O)OC5CCOCC5)C(C)C)[nH]4)CC3)cc2)[nH]1)C(C)C [compound 946]
EC50 [4]: < 1 nM

COC(=O)N[C@H](C(=O)N1CCC[C@H]1c1ncc(-c2ccc(C34CCC(c5cnc([C@@H]6CCCN6C(=O)[C@@H](NC(=O)N6CCOCC6)C(C)C)[nH]5)(CC3)CC4)cc2)[nH]1)C(C)C [compound 636]
EC50 (read-out: Inhibition of HCV genotype 1b, Table 5, 72 h incubation): < 1 nM

COC(=O)N[C@H](C(=O)N1CCC[C@H]1c1ncc(-c2ccc(C34CCC(c5cnc([C@@H]6CCCN6C(=O)[C@@H](c6ccccc6)N6CCCCC6)[nH]5)(CC3)CC4)cc2)[nH]1)C(C)C [compound 632]
EC50 [1]: < 1 nM

COC(=O)N[C@@H](C(=O)N1CCC[C@H]1c1ncc(-c2cc(F)c(N3CCC(c4cnc([C@@H]5CCCN5C(=O)[C@H](NC(=O)[C@@H]5CCCN5C)c5ccccc5)[nH]4)CC3)c(F)c2)[nH]1)c1ccccc1 [compound 472]
EC50 [2]: < 1 nM

COC(=O)N[C@H](C(=O)N1CCC[C@H]1c1ncc(C2CCN(c3c(F)cc(-c4cnc([C@@H]5CCCN5C(=O)[C@H](NC(=O)OC)c5ccccc5)[nH]4)cc3F)CC2)[nH]1)C(C)C [compound 490]
EC50 [2]: < 1 nM

O=C(NC1CCC(c2ccc(-c3cnc([C@@H]4COCCN4C(=O)C(NC(=O)N4CCOCC4)c4ccccc4)[nH]3)cc2)CC1)[C@@H]1CCCN1C(=O)C(NC(=O)N1CCOCC1)c1ccccc1 (stereo partly drawn) [compound 372]
EC50 [4]: 1 to 9.9 nM

CC[C@H](C)[C@H](NC(=O)OC)C(=O)N1CCC[C@H]1c1ncc(-c2ccc([C@H]3CC[C@H](c4cnc([C@@H]5CCCN5C(=O)[C@@H](NC(=O)OC)[C@@H](C)CC)[nH]4)CC3)cc2)[nH]1 [compound 943]
EC50 [4]: < 1 nM

COC(=O)N[C@@H](C(=O)N1CCC[C@H]1c1ncc(-c2ccc(-c3ccc4nc([C@@H]5CCCN5C(=O)[C@H](NC(=O)OC)C(C)C)[nH]c4c3)cc2)[nH]1)C(C)C [compound 404]
EC50 (Hepatitis C virus, Huh-7, 72 h, read-out: Inhibition of HCV genotype 1b, Table 2, 72 h incubation): 1 to 9.9 nM

COC(=O)N[C@H](C(=O)N1CCC[C@H]1c1ncc(-c2ccc([C@H]3CC[C@H](c4cnc([C@@H]5CCCN5C(=O)[C@@H](c5ccccc5)N(C)C)[nH]4)CC3)cc2)[nH]1)C(C)C [compound 940]
EC50 [4]: < 1 nM

CC(C)[C@H](NC(=O)N1CCOCC1)C(=O)N1CCC[C@H]1c1ncc(-c2ccc([C@H]3CC[C@@H](c4cnc([C@@H]5CCCN5C(=O)[C@@H](NC(=O)N5CCOCC5)C(C)C)[nH]4)CC3)cc2)[nH]1 [compound 386]
EC50 [4]: 10 to 999 nM

COC(=O)N[C@H](C(=O)N1CCC[C@H]1c1ncc(-c2ccc([C@H]3CC[C@H](c4cnc([C@@H]5CCCN5C(=O)[C@H](C(C)C)N(C)C)[nH]4)CC3)cc2)[nH]1)C(C)C [compound 941]
EC50 [4]: < 1 nM

CC(C)(C)OC(=O)N[C@@H](C(=O)N1CCC[C@H]1C(=O)NC1CCN(c2ccc(-c3cnc([C@@H]4CCCN4C(=O)[C@H](NC(=O)OC(C)(C)C)c4ccccc4)[nH]3)cc2F)CC1)c1ccccc1 [compound 453]
EC50 [2]: < 1 nM

COC(=O)N[C@H](C(=O)N1CCC[C@H]1c1ncc(-c2ccc(C34CCC(c5cnc([C@@H]6CCCN6C(=O)[C@H](C(C)C)N(C)C(=O)OC)[nH]5)(CC3)CC4)cc2)[nH]1)C(C)C [compound 911]
EC50 [1]: < 1 nM

COC(=O)N[C@@H](C(=O)N1CCOC[C@H]1c1ncc(-c2ccc(C34CCC(c5cnc([C@@H]6CCCN6C(=O)[C@H](NC(=O)OC)c6ccccc6)[nH]5)(CC3)CC4)cc2)[nH]1)c1ccccc1 [compound 2086]
EC50 [1]: < 1 nM

CNC(=O)N[C@@H](C(=O)N1CCC[C@H]1c1ncc(C23CCC(c4ccc(-c5cnc([C@@H]6CCCN6C(=O)[C@@H](NC(=O)OC)C(C)C)[nH]5)cc4)(CC2)CC3)[nH]1)c1ccccc1 [compound 2089]
EC50 [1]: < 1 nM

COC(=O)N[C@H](C(=O)N1CCC[C@H]1c1nc2ccc(-c3ccc(-c4ccc5nc([C@@H]6CCCN6C(=O)[C@@H](C(C)C)N(C)C)[nH]c5c4)cc3)cc2[nH]1)C(C)C [compound 934]
EC50 [3]: < 1 nM

CC(C)[C@H](NC(=O)OC(C)(C)C)C(=O)N1CCC[C@H]1c1ncc(-c2ccc([C@H]3CC[C@H](c4cnc([C@@H]5CCCN5C(=O)[C@@H](NC(=O)OC(C)(C)C)C(C)C)[nH]4)CC3)cc2)[nH]1 [compound 383]
EC50 [4]: 10 to 999 nM

CC(C)(C)OC(=O)N[C@@H](C(=O)N1CCC[C@H]1C(=O)N[C@H]1CC[C@H](c2cccc(-c3cnc([C@@H]4CCCN4C(=O)[C@H](NC(=O)OC(C)(C)C)c4ccccc4)[nH]3)c2)CC1)c1ccccc1 [compound 362]
EC50 [4]: 1 to 9.9 nM

COC(=O)N[C@H](C)C(=O)N1CCC[C@H]1c1ncc(-c2ccc(C34CCC(c5cnc([C@@H]6CCCN6C(=O)[C@@H](C)NC(=O)OC)[nH]5)(CC3)CC4)cc2)[nH]1 [compound 917]
EC50 [1]: < 1 nM

CC(C)(C)OC(=O)N[C@@H](C(=O)N1CCOC[C@H]1c1ncc(-c2cc(F)c(N3CCC(c4cnc([C@@H]5CCCN5C(=O)[C@H](NC(=O)OC(C)(C)C)c5ccccc5)[nH]4)CC3)c(F)c2)[nH]1)c1ccccc1 [compound 508]
EC50 [2]: < 1 nM

COC(=O)N[C@@H](C(=O)N1CCC[C@H]1c1ncc(-c2ccc(C34CCC(c5cnc([C@@H]6CCCN6C(=O)[C@@H](NC(=O)N6CCC(=O)CC6)C(C)C)[nH]5)(CC3)CC4)cc2)[nH]1)c1ccccc1 [compound 644]
EC50 [1]: 1 to 9.9 nM

COC(=O)N[C@H](C(=O)N1CCC[C@H]1c1ncc(-c2cc(F)c(N3CCC(c4cnc([C@@H]5CCCN5C(=O)[C@@H](NC(=O)OC)C(C)C)[nH]4)CC3)c(F)c2)[nH]1)C(C)C [compound 499]
EC50 [2]: < 1 nM
